In patent publication US8507445B2, “Compositions and methods of use of targeting peptides for diagnosis and therapy of human cancer” (Board of Regents, The University of Texas System, priority 2002, dated 2013):

Key:
DU145 xenografts [1] = test: Biopanning of X2CX14CX2 phage library in tumor-bearing mice; format: in vivo, nude mice; details: third round, 76 translated clones
Method: DU145 prostate tumor cells were injected subcutaneously into the right fat pad of nude mice. A large phage library (X2CX14CX2) was prepared as discussed above and 10^9 phage were injected into male tumor-bearing nude mice. After 24 hr circulation, tumors were removed and phage recovered from the tumors using the bulk method disclosed above. The recovered phage were amplified, titered and reinjected into a new set of tumor bearing nude mice. The biopanning protocol was repeated for a total of three rounds. Ninety-six phage clones recovered from the third round of biopanning were selected for sequencing. Translated sequences were obtained for 76 of the 96 clones.

[2] = system: immunoglobulins from the serum of prostate cancer patient M; test: Biopanning on purified immunoglobulins from serum of prostate cancer patient M; format: binding, human; details: three rounds of panning; for phage exhibiting the sequence / total clones, 1994 Serum: early stage; for phage exhibiting the sequence / total clones, 1998 Serum: intermediate stage; for phage exhibiting the sequence / total clones, 2000 Serum: late stage
Description: The methods used were similar to those described in Example 4. A subtraction protocol was used, in which IgG from a normal individual was coupled to protein G chromatography beads. A cyclic CX6C phage display library, prepared as described above, was exposed to the normal IgG's. […] Antibodies from patient M (prostate cancer patient) were attached to fresh protein G chromatograpy beads. […] This procedure was followed for three rounds of screening and targeting peptides against patient M's antibodies were obtained.
Serum samples from the same patient were obtained from archival specimens and used to obtain targeting peptides. Patient M's serum from 1994 (early stage cancer), 1998 (intermediate stage) and 2000 (late stage) were used to obtain antibody targeting peptides as described above.

[3] = system: immunoglobulins from the serum of metastatic prostate cancer patients; test: Biopanning of CX6C phage library on IgGs from serum of prostate cancer patients A, B, C; format: binding, human; details: for share of the clones analyzed: second and third rounds, patient A, B or C that yielded the peptide; for share of the clones in round II / share of the clones in round III: patient C
Description: Sera was selected from patients diagnosed with androgen-dependent and androgen-independent prostate cancer. A CX6C peptide library was screened against this pool of IgGs in a two-step procedure. First, the peptide library was pre-cleared against a pool of purified IgGs from normal serum samples using Protein G affinity chromatography. This step removed peptides from the phage display library that bound to immunoglobulins from patients without prostate cancer. Next, the pre-cleared peptide library was screened against the pool of purified IgGs from the serum of prostate cancer patients. This step selected peptides binding specifically to IgGs elicited against prostate cancer.
A 6-mer cyclic peptide (CX6C) phage display library was used for the biopanning. To select peptides specific to the serum antibodies of cancer patients, a pre-clearing stage was employed to remove non-specific peptides by pre-absorbing the peptide library onto purified IgGs from pooled normal serum (five healthy male individuals). The pre-cleared peptide library was screened onto the purified IgGs from the serum of prostate cancer patients. In brief, 10^9 transducing units (T.U.) of a CX6C cyclic peptide phage library were incubated with IgG antibodies from 50 μl of normal serum immobilized on 50 μl of protein G (Gibco BRL) for 1 hour at 4° C. This was followed by affinity selection on the immobilized IgG antibodies from prostate cancer patient serum for 2 hours at 4° C. Phage peptides specifically bound to IgGs elicited against prostate cancer were eluted with 100 μl of 0.1 M glycine buffer, pH 2.2, neutralized by the addition of 10 μl 1M Tris pH 9.0, and used to infect E. coli strain K91. Ten-fold serial dilutions of the infected solution were spread onto agar plates containing 40 μg/ml of tetracycline and grown overnight. Two hundred colonies were picked, amplified, and precipitated for a subsequent round of panning. A total of three rounds were performed. Individual phage clones were picked for PCR and the insert DNA was sequenced.

DU145 xenografts [4] = test: Phage localization by anti-phage staining of tissues; format: in vivo, nude mice; details: 24 hour circulation
Method: To determine the specificity of the prostate tumor targeting peptides, 10^9 phage carrying the targeting peptide sequences […] (SEQ ID NO:83) and […] (SEQ ID NO:84) were injected into nude mice bearing DU145 xenografts. After 24 hour circulation, tissue samples were obtained from tumor and control organs (kidney, brain, lung and spleen). Tissue samples were washed immediately in DMAM and fixed in 10% formalin for 48 hours at room temperature. Thin sections were stained for phage using anti-phage antibody (1:500 dilution) and detected using the DAKO LSAB+ system. […] This may be due to the tendency of spleen tissue to trap phage and other foreign particles in general as part of the reticuloendothelial system.

Sequence | number of times the sequence was obtained (DU145 xenografts [1]) | other results
TLCRSLEHEVGLFKPRECPF | TLCRSLEHEVGLFKPRECPF (1) | 
CISSPSNC |  | phage exhibiting the sequence / total clones, 1994 Serum [2]: CISSPSNC (1/22)
RGCWRDSTAWHVSYPVECLA | RGCWRDSTAWHVSYPVECLA (1) | 
NNCPVEGSQQNYSGATWCRA | NNCPVEGSQQNYSGATWCRA (1) | 
CIDMTHQC |  | phage exhibiting the sequence / total clones, 1994 Serum [2]: CIDMTHQC (1/22)
QHCVKGQFPFRESVTITCNS | QHCVKGQFPFRESVTITCNS (1) | 
KSCGKYGLIVGQPFAEHCPP | KSCGKYGLIVGQPFAEHCPP (1) | 
HTCWGARDVAQPSGTVRCLK | HTCWGARDVAQPSGTVRCLK (1) | 
IGCNHPSPLGSTVVPTYCFK | IGCNHPSPLGSTVVPTYCFK (3) | 
GTCPRQFFHMQEFWPSDCSR | GTCPRQFFHMQEFWPSDCSR (3) | 
TTCNKSMSSQPMRDSRECHR | TTCNKSMSSQPMRDSRECHR (1) | 
KICPVTNMWTTPSWAHKCGM | KICPVTNMWTTPSWAHKCGM (1) | 
CNQSMWSC |  | phage exhibiting the sequence / total clones, 1994 Serum [2]: CNQSMWSC (1/22)
CKNKHTTC |  | phage exhibiting the sequence / total clones, 1998 Serum [2]: CKNKHTTC (1/20)
LGCNKGRYWLSTRLSVSCAL | LGCNKGRYWLSTRLSVSCAL (1) | 
NRCMPGFLDDADSAASPCGS | NRCMPGFLDDADSAASPCGS (1) | 
TECRGASSGSVSGAATDCRD | TECRGASSGSVSGAATDCRD (1) | 
CFPKRVTC |  | phage exhibiting the sequence / total clones, 2000 Serum [2]: CFPKRVTC (1/29)
KLCYRSSAGSELRPPEKCAY | KLCYRSSAGSELRPPEKCAY (1) | 
CKDRFERC |  | share of the clones analyzed [3]: 100%
WVCTSASQDTRLKEPGMCIA | WVCTSASQDTRLKEPGMCIA (1) | 
DACSRFLGERVDATAAGCSR | DACSRFLGERVDATAAGCSR (2) | 
RTCQVRSNNISPRMALACVT | RTCQVRSNNISPRMALACVT (1) | 
CNSAFAGC |  | phage exhibiting the sequence / total clones, 1994 Serum [2]: CNSAFAGC (1/22); phage exhibiting the sequence / total clones, 1998 Serum [2]: CNSAFAGC (1/20); phage exhibiting the sequence / total clones, 2000 Serum [2]: CNSAFAGC (1/29)

Sequence | number of times the sequence was obtained (DU145 xenografts [1]) | other results
GNCMGLQVSELFMGPYKCRQ | GNCMGLQVSELFMGPYKCRQ (2) | 
MHCTSQTLRGTPSLAPKCSD | MHCTSQTLRGTPSLAPKCSD (1) | 
VACDISAVERLPASARSCKT | VACDISAVERLPASARSCKT (1) | 
YSCTRLNGTGLQNPPSACDR | YSCTRLNGTGLQNPPSACDR (1) | 
CNKTDKGC |  | share of the clones in round II [3]: 16.7%; share of the clones in round III [3]: 0%
CLTSENAC |  | phage exhibiting the sequence / total clones, 1994 Serum [2]: CLTSENAC (1/22)
TSCVRTGHDENLLKAAYCSS | TSCVRTGHDENLLKAAYCSS (1) | 
PGCVVSPFALSAQGTSVCTI | PGCVVSPFALSAQGTSVCTI (1) | 
LGCMASMLREFEGATHACTQ |  | anti-phage staining of control kidney, brain or lung (DU145 xenografts [4]): No staining was observed; anti-phage staining of normal spleen (DU145 xenografts [4]): low level of anti-phage staining; anti-phage staining of tumor (DU145 xenografts [4]): very heavy staining
DRCVLVRPEFGRGDARLCHS | DRCVLVRPEFGRGDARLCHS (2) | 
VECVMASASTDGTAAHPCKP | VECVMASASTDGTAAHPCKP (1) | 
CQNQYPEC |  | phage exhibiting the sequence / total clones, 1994 Serum [2]: CQNQYPEC (1/22); phage exhibiting the sequence / total clones, 1998 Serum [2]: CQNQYPEC (1/20)
CSASDLSC |  | phage exhibiting the sequence / total clones, 1994 Serum [2]: CSASDLSC (2/22)
PNCDLDDIVLNPYTAGPCGT | PNCDLDDIVLNPYTAGPCGT (1) | 
GYCLTVVGGAVLTLALLCVT | GYCLTVVGGAVLTLALLCVT (1) | 
CSTFAGSC |  | phage exhibiting the sequence / total clones, 1994 Serum [2]: CSTFAGSC (1/22)
RSCVNSDTGVLQRGAPSCLF | RSCVNSDTGVLQRGAPSCLF (1) | 
GPCAATGVNPGDHGAAVCDQ | GPCAATGVNPGDHGAAVCDQ (1) | 
CRDGYHHC |  | phage exhibiting the sequence / total clones, 1994 Serum [2]: CRDGYHHC (1/22)
CNWTDKTC |  | share of the clones in round II [3]: 33.3%; share of the clones in round III [3]: 7%
EGCSDIMNTAAERVTGDCSY | EGCSDIMNTAAERVTGDCSY (2) | 
CNNMYAGC |  | phage exhibiting the sequence / total clones, 1998 Serum [2]: CNNMYAGC (1/20)
VRCNEAQLQDSGTVPHPCLR | VRCNEAQLQDSGTVPHPCLR (1) | 
GDCETNNVTKVGGITRNCVG | GDCETNNVTKVGGITRNCVG (1) | 

Sequence | number of times the sequence was obtained (DU145 xenografts [1]) | other results
VFCCGSYCGGVEMLASRCGH | VFCCGSYCGGVEMLASRCGH (2) | 
RGCTEAAGLVIGITTHQCGN | RGCTEAAGLVIGITTHQCGN (3) | 
NDCSAHAQPGWDEVPPMCNQ | NDCSAHAQPGWDEVPPMCNQ (1) | 
CQFENGTC |  | phage exhibiting the sequence / total clones, 1994 Serum [2]: CQFENGTC (1/22)
CAVKSVTC |  | phage exhibiting the sequence / total clones, 1994 Serum [2]: CAVKSVTC (1/22)
CFETFAGC |  | phage exhibiting the sequence / total clones, 1998 Serum [2]: CFETFAGC (1/20)
CTFAGSSC |  | phage exhibiting the sequence / total clones, 1994 Serum [2]: CTFAGSSC (6/22); phage exhibiting the sequence / total clones, 1998 Serum [2]: CTFAGSSC (12/20); phage exhibiting the sequence / total clones, 2000 Serum [2]: CTFAGSSC (26/29)
SRCHALRSQSVSTSAGACIS | SRCHALRSQSVSTSAGACIS (1) | 
CNGFMGYC |  | phage exhibiting the sequence / total clones, 1994 Serum [2]: CNGFMGYC (1/22)
CSKKFVTC |  | phage exhibiting the sequence / total clones, 1998 Serum [2]: CSKKFVTC (3/20)
PNCYSGDGEISSHIPVQCLM | PNCYSGDGEISSHIPVQCLM (1) | 
RECGRTVHRYPWGSPESCER | RECGRTVHRYPWGSPESCER (2) | 
RTCEEVRNRALEELTNFCPY | RTCEEVRNRALEELTNFCPY (1) | 
VVCFMERQMGTDVVSPMCVN | VVCFMERQMGTDVVSPMCVN (1) | 
CRASAMVC |  | phage exhibiting the sequence / total clones, 1994 Serum [2]: CRASAMVC (1/22)
ARCREDTGFMGLGSANICTD | ARCREDTGFMGLGSANICTD (1) | 
CNITQKSC |  | share of the clones in round II [3]: 33.3%; share of the clones in round III [3]: 0%
LRCPLEVDRPNRDPAFLCSQ | LRCPLEVDRPNRDPAFLCSQ (1) | 
CHQKPWEC |  | share of the clones analyzed [3]: 100%
CPRSAKNC |  | phage exhibiting the sequence / total clones, 2000 Serum [2]: CPRSAKNC (1/29)
NQCSSLLTYQGWKRTKDCIP | NQCSSLLTYQGWKRTKDCIP (1) | 
CSYTFAGC |  | phage exhibiting the sequence / total clones, 1994 Serum [2]: CSYTFAGC (1/22)
TLCPPASMGLGREKPRLCSV | TLCPPASMGLGREKPRLCSV (1) | 
